Patent US8076487B2, “Pyridone derivative and herbicide” (Kumiai Chemical Industry Co., Ltd., priority 2006, dated 2011)

Key:
Type in all cases: in vivo
[1] = tested on: green foxtail (Setaria viridis (L.) P. Beauv.); assay: Test Example 2: herbicidal effect by soil application to upland field; conditions: soil surface spray, upland field soil, 1,000 g active ingredient per hectare, 21st day after application
Experimental: (§1) [table] Test Example 2 Test on Herbicidal Effect by Soil Application to Upland field In a 80 cm2 plastic pot, field soil was filled. Seeds of barnyardgrass (Echinochloa crus-galli (L.) P. Beauv. var. crus-galli), green foxtail (Setaria viridis (L.) P. Beauv.), velvetleaf (Abutilon theophrasti medicus), and slender amaranth (Amaranthus viridis L.) were sown and covered with soils. The wettable powder prepared according to Formulation Example 1 was diluted in water and a 1,000 liter equivalent amount per 1 hectare so that the active ingredient becomes 1,000 g per 1 hectare was uniformly sprayed on a soil surface using a small sprayer. Then, on the 21st day after the application to the plants grew in a greenhouse, the herbicidal effect was examined in accordance with a standard shown in Table 34.

[2] = tested on: velvetleaf (Abutilon theophrasti medicus); assay: as above; conditions: soil surface spray, upland field soil, 1,000 g active ingredient per hectare, 21st day after application
Experimental: as §1

[3] = tested on: slender amaranth (Amaranthus viridis L.); assay: as above; conditions: soil surface spray, upland field soil, 1,000 g active ingredient per hectare, 21st day after application
Experimental: as §1

[4] = tested on: barnyardgrass (Echinochloa crus-galli (L.) P. Beauv. var. crus-galli); assay: as above; conditions: soil surface spray, upland field soil, 1,000 g active ingredient per hectare, 21st day after application
Experimental: as §1

[5] = tested on: heartshape false pickerelweed (Monochoria vaginalis (Burm.f.) C.Presl); assay: Test Example 1: herbicidal effect by soil application to paddy field; conditions: paddy field soil application; active ingredient 1,000 g per 1 hectare; wettable powder added dropwise to water surface the day after sowing; examined on the 21st day after application
Procedure, shortened: (§2)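 Plants were sown in flooded (3 cm) paddy soil and evaluated for herbicidal effect 21 days after soil application in a greenhouse.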

[6] = tested on: early watergrass (Echinochloa oryzicola Vasing); assay: as above; conditions: paddy field soil application; active ingredient 1,000 g per 1 hectare; wettable powder added dropwise to water surface the day after sowing; examined on the 21st day after application
Procedure, shortened: as §2

[7] = tested on: Japanese bulrush (Scirpus juncoides Roxb.); assay: as above; conditions: paddy field soil application; active ingredient 1,000 g per 1 hectare; wettable powder added dropwise to water surface the day after sowing; examined on the 21st day after application
Procedure, shortened: as §2

[8] = tested on: green foxtail (Setaria viridis (L.) P. Beauv.); assay: Test Example 3: herbicidal effect by application to upland field (foliage treatment); conditions: 14th day after application; for herbicidal effect, Green Foxtail: foliage treatment, 1,000 g active ingredient per 1 hectare, greenhouse
Procedure, shortened: (§3)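 Plants were sown in field soil and raised in a greenhouse for two weeks before foliar spraying. A water-diluted wettable powder was applied at 1,000 g active ingredient per hectare in 1,000 liters per hectare. Herbicidal effect was scored on a standard scale 14 days later.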

[9] = tested on: velvetleaf (Abutilon theophrasti medicus); assay: as above; conditions: 14th day after application; for herbicidal effect, Velvetleaf: foliage treatment, 1,000 g active ingredient per 1 hectare, greenhouse
Procedure, shortened: as §3

[10] = tested on: slender amaranth (Amaranthus viridis L.); assay: as above; conditions: 14th day after application; for herbicidal effect, Slender Amaranth: foliage treatment, 1,000 g active ingredient per 1 hectare, greenhouse
Procedure, shortened: as §3

[11] = tested on: barnyardgrass (Echinochloa crus-galli (L.) P. Beauv. var. crus-galli); assay: as above; conditions: 14th day after application; for herbicidal effect, Barnyardgrass: foliage treatment, 1,000 g active ingredient per 1 hectare, greenhouse
Procedure, shortened: as §3

[12] = foliage treatment, plants grown two weeks, 1,000 g active ingredient per hectare

Structure (SMILES) | herbicidal effect (index), Green Foxtail [1] | herbicidal effect (index), Velvetleaf [2] | herbicidal effect (index), Slender Amaranth [3] | herbicidal effect (index), Barnyardgrass [4] | herbicidal effect, Monochoria vaginalis (Burm. f.) C. Presl [5] | herbicidal effect, Echinochloa oryzicola Vasing [6] | herbicidal effect, Scirpus juncoides Roxb. [7] | herbicidal effect (index), Green Foxtail [8, 12] | herbicidal effect (index), Velvetleaf [9, 12] | herbicidal effect (index), Slender Amaranth [10, 12] | herbicidal effect (index), Barnyardgrass [11, 12] | herbicidal effect, Green Foxtail [8] | herbicidal effect, Velvetleaf [9] | herbicidal effect, Slender Amaranth [10] | herbicidal effect, Barnyardgrass [11]
Cc1ccc(C(=O)C2=C(O)CCCC2=O)c(=O)n1-c1ccc(Cl)cc1 [I-233] | 3 (50 to less than 70% of herbicidal effect and crop phytotoxicity) | 5 (90% or more of herbicidal effect and crop phytotoxicity) | 5 (90% or more of herbicidal effect and crop phytotoxicity) | 4 (70 to less than 90% of herbicidal effect and crop phytotoxicity) | 5 (90% or more of herbicidal effect and crop phytotoxicity) | 5 (90% or more of herbicidal effect and crop phytotoxicity) | 5 (90% or more of herbicidal effect and crop phytotoxicity) | – | – | – | – | – | – | – | –
Cn1c(C(F)(F)F)ccc(C(=O)C2=C(Sc3ccc(Cl)cc3Cl)CCCC2=O)c1=O [II-14] | 3 (50 to less than 70% of herbicidal effect and crop phytotoxicity) | 5 (90% or more of herbicidal effect and crop phytotoxicity) | 5 (90% or more of herbicidal effect and crop phytotoxicity) | 4 (70 to less than 90% of herbicidal effect and crop phytotoxicity) | 5 (90% or more of herbicidal effect and crop phytotoxicity) | 5 (90% or more of herbicidal effect and crop phytotoxicity) | 5 (90% or more of herbicidal effect and crop phytotoxicity) | – | – | – | – | – | – | – | –
CCCS(=O)(=O)Oc1c(C(=O)c2ccc(C(F)(F)F)n(CCC=C(Cl)Cl)c2=O)cnn1C [IV-31] | 3 (50 to less than 70% of herbicidal effect and crop phytotoxicity) | 4 (70 to less than 90% of herbicidal effect and crop phytotoxicity) | 5 (90% or more of herbicidal effect and crop phytotoxicity) | 4 (70 to less than 90% of herbicidal effect and crop phytotoxicity) | – | – | – | – | – | – | – | – | – | – | –
CC(CCn1c(C(F)(F)F)ccc(C(=O)c2cnn(C)c2O)c1=O)=C(F)F [IV-32] | 3 (50 to less than 70% of herbicidal effect and crop phytotoxicity) | 5 (90% or more of herbicidal effect and crop phytotoxicity) | 5 (90% or more of herbicidal effect and crop phytotoxicity) | 4 (70 to less than 90% of herbicidal effect and crop phytotoxicity) | 5 (90% or more of herbicidal effect and crop phytotoxicity) | 5 (90% or more of herbicidal effect and crop phytotoxicity) | 5 (90% or more of herbicidal effect and crop phytotoxicity) | – | – | – | – | – | – | – | –
O=C1CCCC(O)=C1C(=O)c1ccc(C(F)(F)F)n(Cc2cc(Cl)nc(Cl)c2)c1=O [I-124] | 5 (90% or more of herbicidal effect and crop phytotoxicity) | 5 (90% or more of herbicidal effect and crop phytotoxicity) | 5 (90% or more of herbicidal effect and crop phytotoxicity) | 5 (90% or more of herbicidal effect and crop phytotoxicity) | 5 (90% or more of herbicidal effect and crop phytotoxicity) | 5 (90% or more of herbicidal effect and crop phytotoxicity) | 5 (90% or more of herbicidal effect and crop phytotoxicity) | – | – | – | – | – | – | – | –
CC(=O)Oc1c(C(=O)c2ccc(C(F)(F)F)n(-c3cc([N+](=O)[O-])ccc3F)c2=O)cnn1C [IV-89] | 4 (70 to less than 90% of herbicidal effect and crop phytotoxicity) | 5 (90% or more of herbicidal effect and crop phytotoxicity) | 4 (70 to less than 90% of herbicidal effect and crop phytotoxicity) | 5 (90% or more of herbicidal effect and crop phytotoxicity) | 5 (90% or more of herbicidal effect and crop phytotoxicity) | 4 (70 to less than 90% of herbicidal effect and crop phytotoxicity) | 4 (70 to less than 90% of herbicidal effect and crop phytotoxicity) | – | – | – | – | – | – | – | –
N#CC(C(=O)c1ccc(C(F)(F)F)n(CC(F)(F)F)c1=O)=C(O)C1CC1 [V-22] | 4 (70 to less than 90% of herbicidal effect and crop phytotoxicity) | 5 (90% or more of herbicidal effect and crop phytotoxicity) | 5 (90% or more of herbicidal effect and crop phytotoxicity) | 4 (70 to less than 90% of herbicidal effect and crop phytotoxicity) | – | – | – | – | – | – | – | – | – | – | –
CSCCCn1c(C(F)(F)F)ccc(C(=O)C2=C(O)CCCC2=O)c1=O [I-69] | – | – | – | – | 5 (90% or more of herbicidal effect and crop phytotoxicity) | 5 (90% or more of herbicidal effect and crop phytotoxicity) | 5 (90% or more of herbicidal effect and crop phytotoxicity) | 5 (90% or more of herbicidal effect and crop phytotoxicity) | 5 (90% or more of herbicidal effect and crop phytotoxicity) | 5 (90% or more of herbicidal effect and crop phytotoxicity) | 5 (90% or more of herbicidal effect and crop phytotoxicity) | – | – | – | –
CSCCCn1c(C(F)(F)F)ccc(C(=O)C2=C(O)C3CCC(C3)C2=O)c1=O (stereo not drawn) [III-31] | – | – | – | – | 5 (90% or more of herbicidal effect and crop phytotoxicity) | 5 (90% or more of herbicidal effect and crop phytotoxicity) | 5 (90% or more of herbicidal effect and crop phytotoxicity) | – | – | – | – | 5 (90% or more of herbicidal effect and crop phytotoxicity) | 5 (90% or more of herbicidal effect and crop phytotoxicity) | 5 (90% or more of herbicidal effect and crop phytotoxicity) | 5 (90% or more of herbicidal effect and crop phytotoxicity)
O=C1CCCC(O)=C1C(=O)c1ccc(C(F)(F)F)n(CC2OCCO2)c1=O [I-138] | – | – | – | – | 5 (90% or more of herbicidal effect and crop phytotoxicity) | 5 (90% or more of herbicidal effect and crop phytotoxicity) | 5 (90% or more of herbicidal effect and crop phytotoxicity) | – | – | – | – | 4 (70 to less than 90% of herbicidal effect and crop phytotoxicity) | 5 (90% or more of herbicidal effect and crop phytotoxicity) | 5 (90% or more of herbicidal effect and crop phytotoxicity) | 5 (90% or more of herbicidal effect and crop phytotoxicity)
Cn1nc(C(F)(F)F)c(Cn2c(C(F)(F)F)ccc(C(=O)C3=C(O)CCCC3=O)c2=O)c1OC(F)F [I-127] | – | – | – | – | 4 (70 to less than 90% of herbicidal effect and crop phytotoxicity) | 4 (70 to less than 90% of herbicidal effect and crop phytotoxicity) | 3 (50 to less than 70% of herbicidal effect and crop phytotoxicity) | – | – | – | – | 5 (90% or more of herbicidal effect and crop phytotoxicity) | 5 (90% or more of herbicidal effect and crop phytotoxicity) | 5 (90% or more of herbicidal effect and crop phytotoxicity) | 5 (90% or more of herbicidal effect and crop phytotoxicity)
C=C(C)Cn1c(C(F)(F)F)ccc(C(=O)c2cnn(C)c2OC(C)=O)c1=O [IV-180] | – | – | – | – | 5 (90% or more of herbicidal effect and crop phytotoxicity) | 5 (90% or more of herbicidal effect and crop phytotoxicity) | 5 (90% or more of herbicidal effect and crop phytotoxicity) | – | – | – | – | 4 (70 to less than 90% of herbicidal effect and crop phytotoxicity) | 5 (90% or more of herbicidal effect and crop phytotoxicity) | 5 (90% or more of herbicidal effect and crop phytotoxicity) | 5 (90% or more of herbicidal effect and crop phytotoxicity)
